The values below are quoted from earlier work in US12498364B2, “Use of soluble urokinase plasminogen activator receptor levels to indicate prevention of cardiovascular disease with a statin” (The Regents of the University of Michigan, priority 2019, dated 2025).

Entries after “also recorded” stand apart in the source; their conditions may differ.

For data set [1] the following is noted: cited from earlier work.
Data set [2] addresses T1, interleukin 1β (Homo sapiens, UniProt P01584).
T1 construct: host or cells: patients (in vivo, endogenous cytokine)
Conditions: patients with heart disease and hs-CRP>2.0 mg/L; cited from earlier work.

In the case of `CC(=O)S[C@@H]1CC2=CC(=O)CC[C@]2(C)[C@H]2CC[C@@]3(C)[C@@H](CC[C@@]34CCC(=O)O4)[C@H]12` [spironolactone], the “incidence of the primary outcome” value in data set [1] (overall study, HFpEF) was “did not decrease the incidence of the primary outcome”. The “incidence of cardiovascular events compared to placebo” value in data set [1] (post-hoc, North American patients) is recorded as “lower incidence of cardiovascular events”.
For the molecule canakinumab, in data set [2], the “hs-CRP compared to placebo” value was “reduction in hs-CRP” and the “rate of cardiovascular events compared to placebo” value is “lower rate of cardiovascular events; also recorded: reduced risk of adverse cardiovascular events”.
